Experimental data taken from US12472448B2, “Compact hydroxamate-based affinity tags for artificially tagging biological macromolecules” (The Board of Trustees of the Leland Stanford Junior …, priority 2019, dated 2025).

Tests used:
[1] = test system: modified RNase H containing a single cysteine; test: In vitro intraprotein photo-crosslinking, denaturing SDS-PAGE; type: biochemical; details: mercury arc lamp, 310-370 nm
From the text: A modified RNase H containing a single cysteine was expressed, purified, alkylated with isoazipropyl chloride and repurified as above.
The alkylated protein was illuminated with a mercury arc lamp through filters selecting for light in the 310-370-nm range.

GFP = type: cell-based, S. cerevisiae; details: 365-nm diode, 1 minute
Experimental: S. cervisae was made to express GFP containing isoazipropyl chloride or isoazibutyl chloride as described above. These cells were illuminated by a 365-nm diode (a Prizmatix Mic-LED-365 powered by a BLCC-02 at 0.5 ampere) for 1 minute and then cryogenically ground. Their protein was run on a denaturing SDS-PAGE gel to look for higher-molecular weight species resulting from crosslinking between the two GFP monomers (see e.g., FIG. 41).

GST = GST (Schistosoma japonicum, UniProt P08515); test: Photo-crosslinking of aziethyl glutathione to GST, whole-protein LCMS; type: biochemical; details: 1 mM, 7 mg/ml GST, 337-nm light, 30 minutes
Chain of GST (P08515 2-218): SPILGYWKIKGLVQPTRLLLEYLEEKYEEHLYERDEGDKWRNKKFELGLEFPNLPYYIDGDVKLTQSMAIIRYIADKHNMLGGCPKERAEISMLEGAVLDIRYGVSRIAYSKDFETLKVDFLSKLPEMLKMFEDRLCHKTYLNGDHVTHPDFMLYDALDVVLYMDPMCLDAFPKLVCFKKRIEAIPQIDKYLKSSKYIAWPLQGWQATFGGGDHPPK
Experimental: Aziethyl chloride was anchored to glutathione. 25 mg of glutathione and 5 mg of TCEP were dissolved in 2 ml of methanol, 1 ml of water and 50 ul of TEA. To this were added 41 ul of the aziethyl chloride-alkene mixture synthesized in example 19. The mixture was stirred overnight, lyophilized and resuspended in 2.6 ml of water to make a 30-mM solution. This aziethyl glutathione solution was used without any purification.
7 mg/ml of GST was incubated with 0 or 1 mM of aziethyl glutathione. This mixture was placed beneath 337-nm light source (Laser Science, Inc. VSL-337ND-S) for either 0 or 30 minutes and then subjected to whole-protein LCMS.

[2] = test system: modified RNase H containing a single cysteine; test: Chemical anchoring of crosslinker to protein cysteine, Ellman's assay; type: biochemical; details: 10 ul crosslinker, 1 hour at 37° C., pH 8.6
Experimental: A modified RNase H containing a single cysteine was expressed in E. coli and purified and purified by Ni-IMAC and heparin chromatography.
To 2.75 mg of this protein in 20 ml of 100-mM bicine, 1-mM TCEP, 600-mM NaCl, 100-mM KCl, pH 8.6 was added either 0 or 10 ul of isoazipropyl chloride. These mixtures were incubated for 1 hour at 37° C. The proteins were repurified by heparin chromatography to remove TCEP and isoazipropyl chloride, and the number of free cysteines per protein was determined using Ellman's assay.

[3] = N-tagging of Alexa-350 ADNGK peptide with orthogonal affinity tags, reverse phase HPLC; details: 5 mM of each N-tag, 4 hours at 37° C., pH 7.5
Experimental: A peptide with the sequence ADNGK (SEQ ID NO: 1) was purchased with its N-terminal Fmoc protecting group still in place. This peptide was reacted with NHS-activated fluorophore Alexa-350 (ThermoFisher, A10168) before the Fmoc group was removed using piperidine and the peptide was purified by preparative HPLC.
We treated this peptide with the N-tags form examples 7 and 10, either separately or in combination. This labeling done for 4 hours at 37° C. with 5 mM of each N-tag, 100 mM of sodium phosphate buffered to pH 7.5 and 10% acetonitrile. The resulting species were analyzed by reverse phase HPLC (see, e.g., FIG. 14).

NC(=O)CI [iodoacetamide, reference compound]
appearance of faster-migrating band (intramolecular crosslink) [1]: did not appear

allylcysteine [reference compound]
interprotein crosslinking of the proteins (GFP): lack of similar crosslinking

aziethyl glutathione
GST molecules shifted as expected from covalent crosslinking (GST): 40%

CC1(CCl)N=N1 [isoazipropyl chloride]
appearance of faster-migrating band (intramolecular crosslink) [1]: new faster-migrating band to appear
free cysteines per protein [2]: 0.15
protein's cysteines anchored by the crosslinker [2]: 85%

CC1(CCSC[C@H](N)C(=O)O)N=N1 [Isoazibutyl cysteine, isoazibutyl cysteine]
interprotein crosslinking of the proteins (GFP): 8%

O=Cc1cccc(C(=O)NO)n1 [hydroxamate affinity tag]
labeling of peptide N-termini [3]: efficiently label the peptides

CC1(CSC[C@H](N)C(=O)O)N=N1 [Isoazipropyl cysteine, isoazipropyl cysteine]
interprotein crosslinking of the proteins (GFP): 2%

C[C@@H]1NC(=O)N[C@@H]1CCCCCC(=O)N(C)Cc1cccc(C=O)n1 [compound 10]
labeling of peptide N-termini [3]: efficiently label the peptides
